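Compound exposure: 48 hours, 5 concentrations, 96-well plates. GI50 marks 50% less growth.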 Active and inactive are the calls of the source. Rule as the data show it: active = GI50 up to about 1.1 µM and inactive = higher. Bounds are passed on as bounds.

This note sets out measurements from ChEMBL document CHEMBL1201862, “PubChem BioAssay data set” (2004).

Some test systems named below: 786-0; CCRF-CEM; COLO 205; HCT-15; HOP-92; HT-29; LOX IMVI; MDA-MB-435; Malme-3M; NCI/ADR-RES; OVCAR-5; OVCAR-8; RXF 393; SF-295; SK-MEL-2; SK-MEL-5; SN12C; SNB-19; UACC-257; UACC-62.
What all share (experiment): NCI tumour cell line growth inhibition, 48 h

`O=C(NCc1cccc2ccccc12)N/N=C\c1ccc(Cl)cc1`: the GI50 with 786-0 was > 100 µM (inactive); with CCRF-CEM it was > 100 µM (inactive); in the experiment with COLO 205 it was > 100 µM (inactive); in the experiment on HCT-15 it was over 100 µM; with HOP-92, 74.8 µM (inactive); in the experiment with HT-29, > 100 µM (inactive). Moreover, the GI50 is > 100 µM (inactive) in the experiment on LOX IMVI; 28.1 µM (inactive) in the experiment with MDA-MB-435; > 100 µM (inactive) in the experiment on Malme-3M; > 100 µM (inactive) with NCI/ADR-RES; > 100 µM (inactive) with OVCAR-5; > 100 µM (inactive) in the experiment on OVCAR-8. For the same compound, the GI50 in the experiment on RXF 393 is > 100 µM (inactive); with SF-295, 53.5 µM (inactive); in the experiment with SK-MEL-2, > 100 µM (inactive); in the experiment with SK-MEL-5, 46 µM (inactive); in the experiment with SN12C, > 100 µM (inactive); in the experiment with SNB-19, > 100 µM (inactive). Also, the GI50 with UACC-257 and in the experiment on UACC-62 was > 100 µM (inactive) in each case.

`O=C1OS2(OC(=O)c3cccc4cccc2c34)c2ccccc21` (stereo not given): the GI50 was > 100 µM (inactive) in the experiment with 786-0; > 100 µM (inactive) in the experiment with CCRF-CEM; > 100 µM (inactive) with COLO 205; over 100 µM in the experiment with HCT-15; > 100 µM (inactive) in the experiment on HOP-92; > 100 µM (inactive) in the experiment with HT-29. Further, the GI50 in the experiment with LOX IMVI, in the experiment with MDA-MB-435, in the experiment on Malme-3M, in the experiment with NCI/ADR-RES, with OVCAR-5 and with OVCAR-8 was > 100 µM (inactive) throughout. For the same compound, the GI50 with RXF 393, in the experiment with SF-295, in the experiment with SK-MEL-2, in the experiment with SK-MEL-5, in the experiment on SN12C and in the experiment on SNB-19 was > 100 µM (inactive) each time. The GI50 was > 100 µM (inactive) with UACC-257 and > 10 µM (inactive) with UACC-62.

In the case of `CC(C)(Cl)C(Cl)CC/C(CBr)=C(\Cl)CCl` (stereo not given), the GI50 in the experiment with 786-0 was 2.55 µM (inactive); with CCRF-CEM it was 0.294 µM (active); with COLO 205, 4.89 µM (inactive); in the experiment with HCT-15, 1.97 µM; in the experiment on HOP-92, 10.4 µM (inactive); in the experiment on HT-29, 2.82 µM (inactive). Besides, the GI50 in the experiment on LOX IMVI is 0.406 µM (active); in the experiment on MDA-MB-435, 3.36 µM (inactive); with Malme-3M it was 6.85 µM (inactive); with NCI/ADR-RES, 5.81 µM (inactive); in the experiment on OVCAR-5, 14.7 µM (inactive); in the experiment on OVCAR-8 it was 3.17 µM (inactive). Moreover, the GI50 with RXF 393 is 10.6 µM (inactive); with SF-295, 16.3 µM (inactive); in the experiment on SK-MEL-2 it was 2.47 µM (inactive); with SK-MEL-5, 2.31 µM (inactive); in the experiment on SN12C it was 3.52 µM (inactive); in the experiment with SNB-19 it was 17.6 µM (inactive). Moreover, the GI50 with UACC-257 is 3.25 µM (inactive); in the experiment on UACC-62, 1.67 µM (inactive).

With `CC(=O)CC(=O)Nn1c(-c2cccs2)nc2ccc(I)cc2c1=O`, the GI50 was > 65.9 µM (inactive) in the experiment with 786-0; > 46.8 µM (inactive) in the experiment with CCRF-CEM; > 51.4 µM (inactive) in the experiment on COLO 205; over 57.7 µM with HCT-15; > 50.1 µM (inactive) in the experiment on HOP-92; > 100 µM (inactive) in the experiment with HT-29. Besides, the GI50 is > 46.5 µM (inactive) in the experiment with LOX IMVI; > 60.7 µM (inactive) in the experiment with MDA-MB-435; > 52.6 µM (inactive) in the experiment with Malme-3M; > 46.5 µM (inactive) in the experiment with NCI/ADR-RES; > 55.1 µM (inactive) in the experiment with OVCAR-5; > 57.3 µM (inactive) in the experiment with OVCAR-8. For the same compound, the GI50 is > 68.9 µM (inactive) with RXF 393; > 54.7 µM (inactive) in the experiment on SF-295; > 56.6 µM (inactive) with SK-MEL-2; > 41.6 µM (inactive) in the experiment with SK-MEL-5; > 49.8 µM (inactive) in the experiment with SN12C; > 68.2 µM (inactive) with SNB-19. Also, the figures for the GI50 in the experiment with UACC-257 and with UACC-62 were 33 µM (inactive) and > 50.6 µM (inactive), respectively.
